We go through 5 compounds from patent publication US20210062160A1, “THERAPEUTIC AND IMMUNOMODULATORY BACTERIOPHAGE FORMULATIONS AND METHODS FOR MAKING AND USING THEM” (priority 2017, published 2021).

Assay [1] deals with MDCK cells. The experiment in a line: Inhibition of T4 phage transcytosis across MDCK monolayers by chemical inhibitors. In kind it is cell-based, canine. To be noted: for Inhibitor transcytosis Median ± s.d.: T4 phages across MDCK pretreated 18 hrs: Brefeldin A 5 μgmL^−1, Wortmannin 100 nM, Bafilomycin 0.5 μM, Chloroquine 100 μM, W-7 100 μM, solvent 7.9 ± 3 × 10^4; for effect of inhibitor on phage transcytosis: T4 phages across inhibitor-treated MDCK cells vs solvent control. The procedure:
All cells were seeded at a density of 0.5-1×10^6 cells per well and allowed to grow to confluency (3-5 days). For apical-to-basal transcytosis the apical wells were incubated in Hanks Buffered Salt Solution (HBSS) at pH 6.0 and basal cells in HBSS at pH 7.4 for two hours to mimic pH-dependent uptake (2). For basal-to-apical transcytosis the buffers were switched. Bacteriophages were applied with the HBBS pH 6.0 buffer, incubated with cells for two hours and phage from both apical and basal cell layers quantified by plating with bacterial host.
Permeation of phages throughout the eukaryotic cell. The mechanism of phage access to Eukaryotic cells remains ambiguous (22, 24, 29). […] Inhibition of phage transcytosis was reported as the percentage of phages transcytosed across inhibitor-treated cells, compared to cells treated with a solvent control (FIG. 3A and Table S3).
Before this invention, the mechanism of phage transcytosis across eukaryotic cells remained ambiguous, see e.g., Duerkop et al., 2013, Resident viruses and their interactions with the immune system, Nat Immunol 14:654-9; Merril, et al., 1996, Long-circulating bacteriophage as antibacterial agents, Proc Natl Acad Sci 93:3188-3192; Aronow, et al., 1964, Electron microscopy of in vitro endocytosis of T2 phage by cells from rabbit perioneal exudate, J Exp Med 120. […] Inhibition of phage transcytosis was reported as the percentage of phages transcytosed across inhibitor-treated cells compared to cells treated with a solvent control (FIG. 13).

Assay [2] concerns MDCK cells. The experiment in a line: Fluorescence-positive MDCK cells after treatment with labeled T4 phages. In kind it is cell-based, canine. The conditions noted are these: n=1008, mean. From the text: T4 phage were fluorescently labeled and visualized within MDCK cells (FIG. 4A-C).

For the compound `C[C@H]1CCC/C=C/[C@@H]2C[C@H](O)C[C@H]2[C@H](O)/C=C/C(=O)O1` [Brefeldin A], in the assay on MDCK cells [1], the “Inhibitor transcytosis Median ± s.d.” value is listed as 2.3 ± 2.2 × 10^4 and the “effect of inhibitor on phage transcytosis” value (from here on “effect of inhibitor”) is on record as “significant but incomplete inhibition of transcytosis”. In addition, the “phages transcytosed compared to a solvent control” value with MDCK cells [1] (T4 phages across inhibitor-treated MDCK cells) was 38.5%. Further, the “proportion of fluorescence-positive cells treated with BFA and labeled T4 phages” value in the assay on MDCK cells [2] was 9.98%.
As for `CCN(CC)CCCC(C)Nc1ccnc2cc(Cl)ccc12` (centres unmarked) [Chloroquine], in the assay with MDCK cells [1], the “Inhibitor transcytosis Median ± s.d.” value was 5.3 ± 2.7 × 10^4 and the “effect of inhibitor” value was “no significant treatment effects”.
As for `COC[C@H]1OC(=O)c2coc3c2[C@@]1(C)C1=C(C3=O)[C@@H]2CCC(=O)[C@@]2(C)C[C@H]1OC(C)=O` [Wortmannin], the “Inhibitor transcytosis Median ± s.d.” value in the assay on MDCK cells [1] is on record as 8.1 ± 2.9 × 10^4.
Take `NCCCCCCNS(=O)(=O)c1cccc2c(Cl)cccc12` [W-7]: in the assay with MDCK cells [1], the “Inhibitor transcytosis Median ± s.d.” value was 8.2 ± 1.1 × 10^4 and the “effect of inhibitor” value was “no significant treatment effects”.
`CO/C1=C\C(C)=C\[C@@H](C)[C@@H](O)[C@@H](C)C/C(C)=C/C=C/[C@H](OC)[C@@H]([C@@H](C)[C@@H](O)[C@H](C)[C@@]2(O)C[C@@H](O)[C@H](C)[C@@H](C(C)C)O2)OC1=O` [Bafilomycin]: in the assay with MDCK cells [1], the “Inhibitor transcytosis Median ± s.d.” value is 1 ± .19 × 10^5 and the “effect of inhibitor” value is recorded as “no significant treatment effects”.
